Data published in patent US8455399B2, “N-(4-perfluoroalkyl-phenyl)-4-triazolyl-benzamides as insecticides” (Syngenta Crop Protection LLC, priority 2009, dated 2013).

Tests used:
Assay type in all cases: in vivo
Diabrotica balteata = Diabrotica balteata (corn root worm) artificial diet test; conditions: 120 h, 200 ppm (concentration in well 18 ppm), L2 larvae, larval mortality and growth regulation after 5 days
Experimental: (§1) Diabrotica Balteata (Corn Root Worm): A 24-well microtiter plate (MTP) with artificial diet was treated with test solutions at an application rate of 200 ppm (concentration in well 18 ppm) by pipetting. After drying, the MTP's were infested with L2 larvae (6-10 per well). After an incubation period of 5 days, samples were checked for larval mortality and growth regulation.

Heliothis virescens = Heliothis virescens (tobacco budworm) egg/artificial diet test; conditions: 96 h, 200 ppm (concentration in well 18 ppm), eggs 0-24 h old on artificial diet, egg mortality, larval mortality, growth regulation after 4 days
Experimental: Heliothis Virescens (Tobacco Budworm): Eggs (0-24 h old) were placed in 24-well microtiter plate on artificial diet and treated with test solutions at an application rate of 200 ppm (concentration in well 18 ppm) by pipetting. After an incubation period of 4 days, samples were checked for egg mortality, larval mortality, and growth regulation.

Tetranychus urticae = Tetranychus urticae (two-spotted spider mite) leaf disc spray test; conditions: foliar, 192 h, 200 ppm sprayed on bean leaf discs, mite populations of mixed ages, egg, larval and adult mortality 8 days later
Source text: Tetranychus Urticae (Two-Spotted Spider Mite): Bean leaf discs on agar in 24-well microtiter plates were sprayed with test solutions at an application rate of 200 ppm. After drying, the leaf discs are infested with mite populations of mixed ages. 8 days later, discs are checked for egg mortality, larval mortality, and adult mortality.

Thrips tabaci = Thrips tabaci (onion thrips) leaf disc spray test; conditions: foliar, 168 h, 200 ppm sprayed on sunflower leaf discs, population of mixed ages, mortality after 7 days
Experimental: Thrips Tabaci (Onion Thrips): Sunflower leaf discs were placed on agar in a 24-well microtiter plate and sprayed with test solutions at an application rate of 200 ppm. After drying, the leaf discs were infested with an […] population of mixed ages. After an incubation period of 7 days, samples were checked for mortality.

Spodoptera littoralis = Spodoptera littoralis (Egyptian cotton leafworm) leaf disc spray test; conditions: foliar, 72 h, 200 ppm sprayed on cotton leaf discs, 5 L1 larvae, mortality, feeding behavior, growth regulation 3 days after treatment
Source text: Spodoptera Littoralis (Egyptian Cotton Leafworm): Cotton leaf discs were placed on agar in a 24-well microtiter plate and sprayed with test solutions at an application rate of 200 ppm. After drying, the leaf discs were infested with 5 L1 larvae. The samples were checked for mortality, feeding behavior, and growth regulation 3 days after treatment (DAT).

Plutella xylostella = Plutella xylostella (diamond back moth) artificial diet test; conditions: 144 h, 200 ppm (concentration in well 18 ppm), L2 larvae, larval mortality and growth regulation after 6 days
Experimental: as §1, with “Plutella Xylostella (Diamond Back Moth):” for “Diabrotica Balteata (Corn Root Worm): A”, “(7-12” for “(6-10”, “6” for “5”

Measured: pest or weed control at 200 ppm

CCc1cc(C(F)(C(F)(F)F)C(F)(F)C(F)(F)F)cc(C)c1NC(=O)c1ccc(-n2cncn2)c([N+](=O)[O-])c1 (stereo not drawn) [A3, N-[2-Ethyl-4-(1,2,2,3,3,3-hexafluoro-1-trifluoromethylpropyl)-6-methylphenyl]-3-nitro-4-(1,2,4-triazol-1-yl)benzamide]
≥ 80%: all assays above
